Results published in publication PMC6946680, “Modulation of brain cation-Cl^− cotransport via the SPAK kinase inhibitor ZT-1a” (Nature Communications, 2020).
“And” between values parts separate entries of the source, which are not always exact repeats. Equal entries are not always repeated.

Key:
[1] = system: KCC3 pThr1048; assay: Immunoblot of KCC site 2 phosphorylation (KCC3 Thr1048) in HEK-293 cells transfected with FLAG-KCC3; type: cell-based, human; settings: Fig S4b
[2] = system: human fibroblast cells; assay: Cell volume measurement (calcein-AM) under hyperosmotic stress, human fibroblasts; settings: hypertonic 515 mOsm; BMT or ZT-1a
[3] = system: KCC3 pThr1048; assay: Pharmacodynamic study, KCC3 phosphorylation in brain of naive mice; type: in vivo, mouse; settings: for pTh1048 / KCC3: Fig S8a (brain)
Experimental: (§1) To define ZT-1a efficacy in naive mice in vivo, we examined phosphorylation of SPAK, NKCC1, and NCC in kidney, and phosphorylation of SPAK, NKCC1, and KCC3 in brain, after intraperitoneal (i.p.) administration of either ZT-1a (10, 30, 50, and 100 mg/kg) or Closantel (50 mg/kg as a reference). […]
(§2) 5. Pharmacodynamic (PD) study
(§3) Male C57BL/6j wild-type mice (6 weeks old, Charles River Laboratories Edinburgh UK) were treated with ZT-1a (in DMSO, Sigma) by subcutaneous injection at doses of 0, 3, 10, 30, 50 and 100 mg/kg. 50 mg/kg Closantel was administered as a comparative control. Vehicle control mice were treated with an equal volume of DMSO solution. One hour after administration, mice were sacrificed by cervical dislocation, and kidney and brain tissues were rapidly dissected and snap-frozen in liquid nitrogen. Age- […]
(§4) free conditions at the University of Dundee (UK) as described in our recent study1. Animal experiments and breeding were approved by the University of Dundee ethical committee and performed under a […]
(§5) Policy on the Care, Welfare and Treatment of Animals, and regulations set by the University of Dundee and the U.K. Home Office. […]
(§6) Brain and kidney tissues were collected at 60 min post injection, and proteins subjected to immunoblot were probed with antibodies specific for phosphorylated forms of SPAK,

[4] = system: SPAK phosphorylation; assay: Pharmacodynamic study, SPAK phosphorylation in brain of naive mice; type: in vivo, mouse; settings: Fig S8a (brain)
Experimental: as §1, §2, §3, §4, §5, §6

[5] = system: KCC3 pThr991/pThr1048; assay: Choroid plexus KCC3 phospho-IP/immunoblot in rat IVH model; type: in vivo
[6] = system: NKCC1 pThr203/207/212; assay: Immunoblot of NKCC1 p-Thr203/Thr207/Thr212 in HEK-293 cells; type: cell-based, human; settings: for pNKCC1/NKCC1 band intensity ratio: single replicates
[7] = system: KCC3; assay: 86Rb+ uptake assay for KCC3 activity in HEK-293 cells; type: cell-based, human; design: key to 86Rb+ uptake: 86Rb+ uptake CPM normalized per mg protein (10-min uptake); settings: for 86Rb+ uptake: replicates
Experimental: ^86Rb^+ flux assays have been utilized extensively as a reliable measurement of cation chloride cotransporter activity[51]–[54].
Thirty-six hours post transfection, cells were exposed for 30 min to either control isotonic conditions or hypotonic low [Cl^−] conditions (to activate the SPAK/OSR1 pathway), and then treated for an additional 30 min in the same conditions with the indicated ZT-1a concentrations in the presence of 1 mM ouabain and 0.1 mM bumetanide. Ten-minute ^86Rb^+ uptake values were quantified by scintillation counting, normalized per mg protein for each condition, and plotted for both isotonic and hypotonic conditions. ***p < 0.001; **p < 0.01; *p < 0.05; ns—nonsignificant [by one-way ANOVA with post hoc testing (n = 6, error bars represent the mean ± SEM)]. b ^86Rb^+ uptake assays in the presence of ZT-1a measure transport activity of NKCC1. […] Thirty-six hours post transfection, cells were exposed for 30 min to either control isotonic conditions or hypotonic low [Cl^−] conditions (to activate the SPAK/OSR1 pathway), and then treated in the same conditions for an additional 30 min with 10 µM ZT-1a or 0.1 mM bumetanide (Bum) in the presence of 1 mM ouabain (Na^+/K^+-ATPase inhibitor). ^86Rb^+ uptake was allowed to proceed for 10 min and was then quantified by scintillation counting. ^86Rb^+ uptake CPMs were normalized per mg protein and plotted for both isotonic and hypotonic conditions. […] Thirty-six hours post transfection, cells were exposed for 30 min to either control isotonic conditions or hypotonic low [Cl^−] conditions (to activate the SPAK/OSR1 pathway), and then treated for an additional 30 min in the same conditions with the indicated ZT-1a concentrations in the presence of 1 mM ouabain. Ten-minute ^86Rb^+ uptake values were quantified by scintillation counting, normalized per mg protein for each condition, and plotted for both isotonic and hypotonic conditions. ***p < 0.001; **p < 0.01; *p < 0.05; ns—nonsignificant [by one-way ANOVA with post hoc testing (n = 6, error bars represent the mean ± SEM)].
This stimulating medium was then removed and replaced with isotonic medium containing inhibitors plus 2 µCi/ml ^86Rb^+. After incubation for 10 min at 37 °C, cells were rapidly washed three times with the respective ice-cold nonradioactive medium. Washed cells were lysed in 300 µl of ice-cold lysis buffer and ^86Rb^+ uptake was quantitated by liquid scintillation counting (PerkinElmer).

[8] = system: mouse model of ischemic stroke (tMCAO); assay: Infarct volume and hemispheric swelling (TTC) 24 h after tMCAO; type: in vivo
[9] = system: KCC3 pThr1048; assay: Immunoblot of KCC site 2 phosphorylation (KCC3 Thr1048) in HEK-293 cells transfected with FLAG-KCC3; type: cell-based, human; settings: for T1007/KCC2 band intensity ratio: single replicates
[10] = system: pSPAK (pSer373)/pOSR1 (pSer325); assay: Immunoblot of pSPAK/pOSR1 in ischemic mouse brain membrane fractions; settings: for SPAK / Na-K pumb / pSer373 / SPAK: Fig 8, individual samples; for pSPAK pOSR1/Na K pump (fold veh-CL): Membrane, single samples
[11] = rat CPe 48 h post IVH + 1a, replicates

Cc1cc(C(C#N)c2ccc(Cl)cc2)c(Cl)cc1NC(=O)c1cc(Cl)ccc1O (centres unmarked) [ZT-1a, 5-chloro-N-(5-chloro-4-((4-chlorophenyl)(cyano)methyl)-2-methylphenyl)-2-hydroxybenzamide]
KCC3 pThr1048 / KCC3 ([1]; ZT-1a 0.3 uM): 0.52 and 0.601 and 0.501 and 0.473 | KCC3 pThr1048 / KCC3 ([1]; ZT-1a 3 uM): 0.31 and 0.301 and 0.253 and 0.205 | regulatory volume increase (RVI) in human fibroblast cells [2]: absence of RVI | KCC3 phosphorylation (pThr1048) in naive brains ([3]; 60 min after administration): neither drug had reduced | pTh1048 / KCC3 ([3]; 10 mg/kg): 1.01 and 0.99 and 1 and 0.95 | pTh1048 / KCC3 ([3]; 30 mg/kg): 1.05 and 0.97 and 0.9 and 0.96 | pTh1048 / KCC3 ([3]; 50 mg/kg): 0.87 and 0.92 and 1.06 and 0.97 | pTh1048 / KCC3 ([3]; 100 mg/kg): 0.94 and 0.87 and 0.99 and 0.9 | pSer373 / SPAK ([4]; 10 mg/kg): 0.64 and 0.68 and 0.52 and 0.61 | pSer373 / SPAK ([4]; 30 mg/kg): 0.55 and 0.6 and 0.56 and 0.52 | pSer373 / SPAK ([4]; 50 mg/kg): 0.56 and 0.65 and 0.61 and 0.53 | pSer373 / SPAK ([4]; 100 mg/kg): 0.67 and 0.54 and 0.58 and 0.5 | KCC3 pThr991 / Actin [5, 11]: 0.089 and 0.127 and 0.217 and 0.096 and 0.114 and 0.223 | KCC3 pThr1048 / Actin [5, 11]: 0.504 and 0.573 and 0.821 and 0.586 and 0.633 and 0.872 | reduction of post-IVH KCC3 phosphorylation at Thr991 ([5]; rat CPe, ICV ZT-1a): 6 fold | reduction of post-IVH KCC3 phosphorylation at Thr1048 ([5]; rat CPe, ICV ZT-1a): 2.1 fold | inhibition at 1 µM ([6]; Homo sapiens, HEK293, read-out: inhibition of phosphorylation of NKCC1 p-Thr203/207/212, 1 µM ZT-1a, HEK-293 cells, n = 4): 72 ± 5.2% | pNKCC1/NKCC1 band intensity ratio ([6]; Hypotonic low Cl, 1 uM): 0.292 and 0.311 and 0.247 and 0.273 | pNKCC1/NKCC1 band intensity ratio ([6]; Hypotonic low Cl, 3 uM): 0.113 and 0.104 and 0.103 and 0.1063 | pNKCC1/NKCC1 band intensity ratio ([6]; Hypotonic low Cl, 10 uM): 0.004 and 0.007 and 0.005 and 0.003 | pNKCC1/NKCC1 band intensity ratio ([6]; Isotonic control, 1 uM): 0.133 and 0.075 and 0.106 and 0.093 | pNKCC1/NKCC1 band intensity ratio ([6]; Isotonic control, 3 uM): 0.048 and 0.046 and 0.043 and 0.041 | pNKCC1/NKCC1 band intensity ratio ([6]; Isotonic control, 10 uM): 0.006 (2×) and 0.004 and 0.005 | activation of WT KCC3 (KCC) activity ([7]; 86Rb+ flux, 10 µM ZT-1a, HEK-293): > 10.6 fold and > 10 fold | 86Rb+ uptake ([7]; Fig 3a right, KCC3 wt, ZT-1a 1 uM, Hypotonic low Cl-): 1990.9 and 1707.8 and 2071.9 and 2501.3 and 2188.7 and 2073.1 | 86Rb+ uptake ([7]; Fig 3a right, KCC3 wt, ZT-1a 1 uM, Isotonic control): 3241.3 and 3419.1 and 2873.4 and 3612.8 and 2913.5 and 2519.3 | 86Rb+ uptake ([7]; Fig 3a right, KCC3 wt, ZT-1a 3 uM, Hypotonic low Cl-): 4012.2 and 3271.9 and 4514.8 and 3888.6 and 3729.3 and 3910.5 | 86Rb+ uptake ([7]; Fig 3a right, KCC3 wt, ZT-1a 3 uM, Isotonic control): 6755.1 and 6519.9 and 7018.4 and 6691.3 and 7512.7 and 6011.7 | 86Rb+ uptake ([7]; Fig 3a right, KCC3 wt, ZT-1a 10 uM, Hypotonic low Cl-): 11981.4 and 10921.3 and 12650.2 and 11037.8 and 12144.8 and 9615.1 | 86Rb+ uptake ([7]; Fig 3a right, KCC3 wt, ZT-1a 10 uM, Isotonic control): 17537.1 and 16129.4 and 18002.7 and 19588.5 and 17991.3 and 15002.2 | 86Rb+ uptake ([7]; Fig 3a, KCC3 wt + 1a (10 µM), Hypotonic low Cl-): 12251.1 and 13980.5 and 10874.7 and 11830.4 and 14081.1 and 11229.7 | 86Rb+ uptake ([7]; Fig 3a, KCC3 wt + 1a (10 µM), Isotonic control): 17623.6 and 19014.4 and 18719.8 and 19961.7 and 18001.8 and 17951.6 | reduction of cerebral hemispheric swelling ([8]; ZT-1a 2.5 or 5 mg/kg, vs vehicle control): 36–54% | infarct volume ([8]; ZT-1a from 3 h post reperfusion, 24 h post tMCAO, n = 12): 43.6 ± 6.5 mm^3 | decrease of infarct volume ([8]; ZT-1a from 3 h post reperfusion, 24 h post tMCAO, vs vehicle, n = 12): ~ 44% | T1007/KCC2 band intensity ratio ([9]; Hypotonic low Cl, 1 uM): 0.223 and 0.282 and 0.213 and 0.243 | T1007/KCC2 band intensity ratio ([9]; Hypotonic low Cl, 3 uM): 0.041 and 0.093 and 0.036 and 0.063 | T1007/KCC2 band intensity ratio ([9]; Hypotonic low Cl, 10 uM): 0.027 and 0.033 and 0.023 and 0.03 | T1007/KCC2 band intensity ratio ([9]; Isotonic control, 1 uM): 0.174 and 0.099 and 0.126 and 0.132 | T1007/KCC2 band intensity ratio ([9]; Isotonic control, 3 uM): 0.134 and 0.118 and 0.103 and 0.121 | T1007/KCC2 band intensity ratio ([9]; Isotonic control, 10 uM): 0.09 and 0.069 and 0.044 and 0.053 | KCC3 pThr1048 / KCC3 ([9]; ZT-1a 1 uM, Fig S4b): 0.35 and 0.401 and 0.302 and 0.261 | SPAK / Na-K pumb ([10]; CL hemisphere): 0.981 and 0.854 and 0.987 and 1.037 and 0.972 and 0.893 | pSer373 / SPAK ([10]; CL hemisphere): 1.177 and 1.25 and 1.197 and 1.217 and 1.153 and 1.09 | SPAK / Na-K pumb ([10]; IL hemisphere): 0.919 and 0.978 and 0.855 and 0.931 and 0.95 and 0.819 | pSer373 / SPAK ([10]; IL hemisphere): 0.773 and 0.739 and 0.598 and 0.674 and 0.62 and 0.668 | pSPAK pOSR1/Na K pump (fold veh-CL) ([10]; CL): 1.23 fold veh-CL and 0.84 fold veh-CL and 1.17 fold veh-CL and 1.58 fold veh-CL and 1.64 fold veh-CL | pSPAK pOSR1/Na K pump (fold veh-CL) ([10]; IL): 1.24 fold veh-CL and 0.94 fold veh-CL and 0.88 fold veh-CL and 1.08 fold veh-CL and 0.87 fold veh-CL | reduction of ischemia-induced elevation of pSPAK ([10]; compared with vehicle-control mice): 55–65% | ischemia-induced increase of pSPAK/pOSR1 ([10]; post-stroke ZT-1a 5 mg/kg, 24 h reperfusion): prevented
